Source: patent publication US12377104B1, “Methods for treating a fatty liver disease” (Madrigal Pharmaceuticals, Inc., priority 2024, dated 2025)

Legend:
[1] = human, in vivo
Source text: Following once daily doses, steady state was typically reached within 3 to 6 days of dosing.

[2] = test system: noncirrhotic NASH with stage 2 or stage 3 fibrosis; assay: Trial 1 Month 12 histopathology efficacy analysis (F2 and F3); format: in vivo, human
Protocol: Patients were on stable doses of medications for diabetes, dyslipidemia, and hypertension. […] Two pathologists, Pathologist A and Pathologist B, independently read the liver biopsies for each patient. […] Liver fibrosis was evaluated on the NASH Clinical Research Network (CRN) fibrosis score as 0 to 4. […] No worsening of steatohepatitis was defined as no increase in NAS for ballooning, inflammation, or steatosis. […] Estimated using the Mantel-Haenszel method stratified by baseline type 2 diabetes status (presence or absence) and fibrosis stage (F2 or F3). 95% stratified Newcombe confidence intervals (CIs) are provided. Patients with missing liver biopsy at Month 12 were considered a non-responder.

NASH patients = assay: MAESTRO-NAFLD-1 100 mg open label non-cirrhotic NASH arm, 52 weeks; format: in vivo, human
Protocol: The 169 patient, 100 mg open label (OL) arm completed the 52 week study in July 2021.
Eligibility required at least 3 metabolic risk factors (Metabolic syndrome), fibroscan kilopascals (kPa) consistent with ≥F1 fibrosis stage, and MRI-PDFF≥8%. The primary and key secondary endpoints of MAESTRO-NAFLD-1 including safety, relative percent reduction of MRI-PDFF (week 16), LDL cholesterol (LDL-C) (week 24), apolipoprotein B and triglycerides, fibroscan and 52 week endpoints were analyzed in the OL arm.
Mean age was 55.7 (11.5 Standard Deviation (SD)), female 69%, BMI 35.8 (6.0), diabetes 43%, hypertension 62%, dyslipidemia >70%, atherosclerotic cardiovascular disease (ASCVD) score 11.5%; fibroscan (kPa 7.7 (3.6)), and MRI-PDFF 17% (7%). […] Liver volume (LV) was elevated at baseline (2202 cm3 (535)) by […] relative to normal controls and −15% after correction for BMI (Euro J of Radiol 106, 2018, 32-37). […] LV reduction was 2-3 fold greater than predicted by % reduction in MRI-PDFF, a measure of liver fat content (Clin Gastroenterol Hepatol. 2015 13: 561-568); LY-corrected mean MRI-PDFF reduction was −63% (2.4%). […] At week 52, magnetic resonance elastography (MRE) (−0.34, p=0.03); fibroscan controlled attenuation parameter (CAP) (−39 (4.6)) and vibration-controlled transient elastography (VCTE) (−1.87; −20%) (p<0.0001) were reduced relative to baseline.

[3] = test system: adults with biopsy-confirmed NASH; assay: MAESTRO-NASH: non-invasive predictive markers of biopsy response; format: in vivo, human; settings: 100 mg
Protocol: Histologic endpoints were assessed after 52 weeks. […] The non-invasive correlates of response in the MAESTRO-NASH trial are summarized below.
Adults with ≥3 metabolic risk factors, liver stiffness ≥8.5 kPa, hepatic fat ≥8%, biopsy-confirmed NASH with F1B-F3 fibrosis, and NAS≥4 were eligible to participate in MAESTRO-NASH.
Random Forest model was utilized to determine the biomarkers and imaging tests both at baseline and change from baseline that had the most important association with response on biopsy for NASH resolution and/or fibrosis improvement. The data was based on baseline characteristics and change from baseline of more than 40 variables: biomarkers, clinical features, and imaging. This analysis confirmed the importance of MRI-PDFF (FIGS. 42-43).

[4] = test system: well-compensated NASH cirrhotic patients; assay: MAESTRO-NAFLD-1 open label well-compensated NASH cirrhotic arm, 52 weeks; format: in vivo, human
Protocol: LV was assessed using a validated artificial intelligence model for segmenting the liver on standard MR images. […] Eligibility required at least 3 metabolic risk factors (metabolic syndrome), and NASH cirrhosis diagnosed on liver biopsy or according to accepted criteria. […] Demographics include mean age 62.7 (9.0 (SD)), female 64%, BMI 35.4 (7.4), diabetes 70%, hypertension 77%, dyslipidemia >70%, mean ASCVD score 16.1%, hypothyroid 32.4%, 51% on statins. […] Stage of cirrhosis was inversely correlated with baseline PDFF.

[5] = cirrhotic NASH, PDFF≤5% at baseline, week 16

SMILES: CC(C)c1cc(Oc2c(Cl)cc(-n3nc(C#N)c(=O)[nH]c3=O)cc2Cl)n[nH]c1=O [Resmetirom, 2-(3,5-dichloro-4-((5-isopropyl-6-oxo-1,6-dihydropyridazin-3-yl)oxy)phenyl)-3,5-dioxo-2,3,4,5-tetrahydro-1,2,4-triazine-6-carbonitrile]
- exposure increase following once daily dosing [1]: 1.5- to 3 fold
- exposure vs dose [1]: greater than dose proportional
- steady state exposure vs dose [1]: dose proportional
- time to steady state [1]: 3 to 6 days
- Improvement in liver fibrosis, no worsening of steatohepatitis: response rate, Pathologist A ([2]; 80 mg): 23%
- Improvement in liver fibrosis, no worsening of steatohepatitis: response rate, Pathologist B ([2]; 80 mg): 23%
- Improvement in liver fibrosis: difference in response rate vs. placebo (95% CI), Pathologist A ([2]; 80 mg): 8 (2, 14)
- Improvement in liver fibrosis: difference in response rate vs. placebo (95% CI), Pathologist B ([2]; 80 mg): 11 (5, 17)
- Resolution of steatohepatitis, no worsening of fibrosis: response rate, Pathologist A ([2]; 80 mg): 27%
- Resolution of steatohepatitis, no worsening of fibrosis: response rate, Pathologist B ([2]; 80 mg): 26%
- Resolution of steatohepatitis: difference in response rate vs. placebo (95% CI), Pathologist A ([2]; 80 mg): 14 (8, 20)
- Resolution of steatohepatitis: difference in response rate vs. placebo (95% CI), Pathologist B ([2]; 80 mg): 17 (11, 23)
- Improvement in liver fibrosis, no worsening of steatohepatitis: response rate, Pathologist A ([2]; 100 mg): 28%
- Improvement in liver fibrosis, no worsening of steatohepatitis: response rate, Pathologist B ([2]; 100 mg): 24%
- Improvement in liver fibrosis: difference in response rate vs. placebo (95% CI), Pathologist A ([2]; 100 mg): 13 (7, 20)
- Improvement in liver fibrosis: difference in response rate vs. placebo (95% CI), Pathologist B ([2]; 100 mg): 11 (5, 17)
- Resolution of steatohepatitis, no worsening of fibrosis: response rate, Pathologist A ([2]; 100 mg): 36%
- Resolution of steatohepatitis, no worsening of fibrosis: response rate, Pathologist B ([2]; 100 mg): 24%
- Resolution of steatohepatitis: difference in response rate vs. placebo (95% CI), Pathologist A ([2]; 100 mg): 23 (16, 30)
- Resolution of steatohepatitis: difference in response rate vs. placebo (95% CI), Pathologist B ([2]; 100 mg): 15 (9, 21)
- ALT decrease from baseline (NASH patients): −20 IU
- AST decrease from baseline (NASH patients): −11 IU
- Blood pressure (systolic, diastolic) change (NASH patients): −2 mmHg
- GGT decrease from baseline (NASH patients): −25 IU
- LDL-C change (NASH patients): −22%
- LV reduction greater than predicted by % reduction in MRI-PDFF (NASH patients): 2-3 fold
- LV-corrected mean MRI-PDFF reduction (NASH patients): −63%
- apolipoprotein-B change (NASH patients): −24%
- triglycerides change (NASH patients): −24%
- bone mineral density (DEXA) (NASH patients; 52 weeks): unchanged
- safety (NASH patients; 52 weeks): No safety flags
- LV change (NASH patients; week 16): −21%
- LV change (NASH patients; week 52): −23%
- reduction of MRI-PDFF (NASH patients; week 52): −53%
- NASH resolution responders with at least a 30% PDFF response [3]: 96%
- fibrosis improvement responders with at least a 30% PDFF response [3]: 88%
- fibroscan CAP change ([4]; 80-100 mg daily, week 52): −42 units
- fibroscan kPa change ([4]; 80-100 mg daily, week 52): −7.6 kPa
- LV mean %CFB [4, 5]: −16.3%
- PDFF mean %CFB [4, 5]: −2.5%
- ApoB reduction ([4]; in vivo): 20%
- Blood pressure reduction ([4]; in vivo): 4-5 mm
- GGT change ([4]; in vivo): −27%
- LDL-C reduction ([4]; in vivo): 20%
- Lp(a) reduction ([4]; in vivo): 30%
- alkaline phosphatase (ALP) change ([4]; in vivo): −18%
- safety and tolerability ([4]; in vivo): safe and well-tolerated
- triglycerides reduction ([4]; in vivo): 21%
- PDFF lowered by ([4]; patients with baseline PDFF>5%): 37%
- Liver volume change ([4]; week 16): −15.9%
- MRE lowered by ([4]; week 52): 0.68 kPa
- patients with >15% reduction in LV ([4]; week 52): 73%
- patients with MRE reduction of ≥15% ([4]; week 52): 34%
